# Test results from patent publication US20250382346A1, “NEURONAL PROMOTERS AND USES THEREOF” (priority 2023, published 2025).
# Target: T1, rM3Ds (Rattus norvegicus, UniProt P08483, A177S/A238G/A489L/DEL261-437/DEL441-478/E258S/I253V/I483M/INS256[…]/K178L/K182A/K255R/K484R/K486H/L173F/L482A/M480V/R171S/R176Q/R179M/S481M/T174R/T181R/T257A/Y148C)
# T1 sequence (P08483 with tags, fused parts or gaps Y148C/R171S/L173F/T174R/R176Q/A177S/K178L/R179M/T181R/K182A/A238G/I253V/K255R/INS256[…]/T257A/E258S/DEL261-437/DEL441-478/M480V/S481M/L482A/I483M/K484R/K486H/A489L): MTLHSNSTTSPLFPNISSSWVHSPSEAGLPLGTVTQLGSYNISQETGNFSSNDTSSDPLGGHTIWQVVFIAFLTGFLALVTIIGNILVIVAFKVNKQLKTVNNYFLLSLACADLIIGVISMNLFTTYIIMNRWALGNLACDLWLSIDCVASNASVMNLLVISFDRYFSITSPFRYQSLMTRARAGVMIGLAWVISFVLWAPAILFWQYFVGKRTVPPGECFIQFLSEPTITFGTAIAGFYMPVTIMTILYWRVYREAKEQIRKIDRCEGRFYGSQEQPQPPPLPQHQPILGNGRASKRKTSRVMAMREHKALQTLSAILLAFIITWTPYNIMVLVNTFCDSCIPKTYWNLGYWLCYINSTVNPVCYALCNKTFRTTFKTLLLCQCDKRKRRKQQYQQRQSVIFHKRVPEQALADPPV
# Test: In vivo electrophysiological recording in caudate/putamen of anesthetized macaques, rM3Ds
# Design: 2A-EYFP (C); expressed in transfected cells; host or cells: neurons (striatal D1-MSNs) of mice or cynomolgus macaques, transduced in vivo by nigral AAV8R12-G88P7-rM3Ds-2A-EYFP
# Method: • Electrophysiological recording was performed through a recording chamber while the monkey was anesthetized. Neural responses were recorded by a 16-channel linear probe (Plexon Inc, Uprobe) driven by a mechanical microdrive (Alpha Omega, FlexMT). Signals were passed through a head stage (Plexon Inc, HST/16V-G20 LN) and then split and filtered between 300 Hz and 5 kHz to identify spiking activity with an amplifier system (Plexon Inc, OmniPlex). Detected spikes were then sorted by commercially available software (Plexon Inc, Offline Sorter) for further analysis. To quantify the effect of CNO/DCZ injection, neural activity was recorded for 60 minutes following CNO/DCZ injection. The response time-course for each channel was obtained by counting the spikes within every 10-minute window and then normalizing to the maximal.
# To determine the effect of CNO/DCZ injection on the direction of signal change, we performed Pearson correlation between neural responses and time using the ‘corr’ function in Matlab, which generates the correlation coefficient ‘r’ and significant level ‘p’. A neuron was considered to have “Increased” activity when r>0 and p<0.05; and considered to have “Decreased” activity when r<0 and p<0.05. Otherwise, neurons were considered to be “Unchanged” in their neural activities. The responses of all increased neurons were then averaged after being normalized by the maximal response (Crowe et al., 2014; Dai and Wang, 2018; Hirokawa et al., 2019) following CNO/DCZ injection, and then plotted as a function of time to generate the normalized population response.
# To enable in-vivo verification of the strategy via an opto-tagging approach, AAV virus encoding opsin ChR2 (AAV9-EF1α-DIO-ChR2-EYFP) was injected into the striatum with simultaneous nigral infusion of a retrograde AAV encoding Cre and rM3Ds (AAV8R12-G88P7-HA-rM3Ds-2A-Cre). A total volume of 27 μl (3 μl×9 sites) and 30 μl (3 μl×10 sites) were injected in the SNr and the striatum, respectively. A recording chamber was implanted above the striatum to allow optical stimulation and electrophysiological recording.
# Optogenetic verification was conducted six weeks after virus injections. A 16-channel linear probe with an embedded optic fiber (Plexon Inc., Uprobe) was used to deliver light stimulation and record neural responses. A mechanical Microdrive (FlexMT, Alpha Omega, Nazareth, Israel) was used to mount and drive the probe. A blue laser (473 nm, Changchun New Industries Tech, MBL-III-473) was used to generate light stimulation, which was controlled by a DAQ board (National Instruments, PCIe-6321) through the MonkeyLogic toolbox (NIMH version).
# Light pulses of 40 Hz that last for 500 ms were used to probe neurons' responses to optical stimulation. […] Responses from these optically identified cells were grouped to generate the normalized population response as a function of time.
# [1] = monkey CM048, 38 cells, intramuscular CNO
smiles,measurement,setting,value
"C[N+]1([O-])CCN(C2=Nc3cc(Cl)ccc3Nc3ccccc32)CC1 [CNO, Clozapine-N-oxide]",cells in caudate/putamen activated (FIG. 12N),"38 total cells, CNO administrations, saline 20%",50%
same,cells in caudate/putamen unchanged (FIG. 12N),"38 total cells, CNO administrations, saline 26.7%",36.8%
same,cells in caudate/putamen inactivated (FIG. 12N),"38 total cells, CNO administrations, saline 53.3%",13.2%
same,neuronal activity of opto-tagged retrogradely labeled D1-MSNs,"AAV8R12-G88P7-HA-rM3Ds-2A-Cre plus AAV9-EF1α-DIO-ChR2-EYFP, intramuscular CNO, anesthetized macaques",effectively induced an increase of neuronal activity in retrogradely labeled D1-MSNs
same,cells in caudate/putamen activated (FIG. 15G),"MPP+ lesioned macaques, CNO 36 cells, DCZ 31 cells, saline 17.9%",52.8%
same,cells in caudate/putamen inactivated (FIG. 15G),"MPP+ lesioned macaques, CNO 36 cells, DCZ 31 cells, saline 33.4%",13.9%
same,cells in caudate/putamen unchanged (FIG. 15G),"MPP+ lesioned macaques, CNO 36 cells, DCZ 31 cells, saline 48.7%",33.3%
same,cells in caudate activated (FIG. 12F),[1],65.8%
same,cells in caudate inactivated (FIG. 12F),[1],7.9%
same,cells in caudate unchanged (FIG. 12F),[1],26.3%
